One assay concerns the target wild type HER2 (HER2-WT) (Homo sapiens, UniProt P04626). Description: BaF3 panel Cell Titer Glo proliferation, wild type HER2 (Example 3). Conditions: BaF3 transformant, 72 hours, FIG. 21; read-out: IC50, HER-WT. The class given is cell-based. How it is done:
(§1) To determine the ability of Compound No. 6 to target wild type HER2, wild type EGFR, and relevant mutants of each, a panel of BaF3 cell lines and the A431 cell line were dosed and assessed in cell proliferation assays. The BaF3 parental cell line is normally dependent on IL-3 for proliferation, but when transformed with active tyrosine kinase can grow in the absence of IL-3. However, when transformed kinase activity is inhibited by a targeted small molecule the associated proliferation is reduced in proportion to the extent of inhibition. A panel of BaF3 cell lines were generated by transforming the parental BaF3 cell line with wild type HER2 (HER2-WT), HER2 S310F (HER2-S310F), HER2 Exon 20 insertion YVMA (HER2-YVMA), EGFR-Exon 20 insertion ASV (EGFR-ASV), EGFR-Exon 20 insertion SVD (EGFR-SVD), or EGFR-Exon 20 insertion NPH (EGFR-NPH). The A431 lung cancer cell line, which natively expresses WT-EGFR, was used to assess WT-EGFR inhibition. […] Proliferation was assessed using the Cell Titer Glo cell proliferation kit (Promega # G7573). […] Cell Titer Glo was added to plated cells at 15 ul per well, the plate was shaken for 20 minutes at room temperature, and luminescence was measured using Victor X3 Multimode plate reader (Perkin Elmer), Cell Titer Glo readings were taken following 72 hours (T72) after addition of Compound No. 6. […]
(ATP-based viability assays read luminescence as a measure of living cells.)

In assay [1] the target is T1, EGFR-Exon 20 insertion SVD (EGFR-SVD) (Homo sapiens, UniProt P00533, DUP768-770).
T1 construct: expressed in transfected cells; host or cells: BaF3 (murine pro-B), retroviral pMXs-IRES-Blasticidin
T1 sequence (P00533 with tags, fused parts or gaps DUP768-770): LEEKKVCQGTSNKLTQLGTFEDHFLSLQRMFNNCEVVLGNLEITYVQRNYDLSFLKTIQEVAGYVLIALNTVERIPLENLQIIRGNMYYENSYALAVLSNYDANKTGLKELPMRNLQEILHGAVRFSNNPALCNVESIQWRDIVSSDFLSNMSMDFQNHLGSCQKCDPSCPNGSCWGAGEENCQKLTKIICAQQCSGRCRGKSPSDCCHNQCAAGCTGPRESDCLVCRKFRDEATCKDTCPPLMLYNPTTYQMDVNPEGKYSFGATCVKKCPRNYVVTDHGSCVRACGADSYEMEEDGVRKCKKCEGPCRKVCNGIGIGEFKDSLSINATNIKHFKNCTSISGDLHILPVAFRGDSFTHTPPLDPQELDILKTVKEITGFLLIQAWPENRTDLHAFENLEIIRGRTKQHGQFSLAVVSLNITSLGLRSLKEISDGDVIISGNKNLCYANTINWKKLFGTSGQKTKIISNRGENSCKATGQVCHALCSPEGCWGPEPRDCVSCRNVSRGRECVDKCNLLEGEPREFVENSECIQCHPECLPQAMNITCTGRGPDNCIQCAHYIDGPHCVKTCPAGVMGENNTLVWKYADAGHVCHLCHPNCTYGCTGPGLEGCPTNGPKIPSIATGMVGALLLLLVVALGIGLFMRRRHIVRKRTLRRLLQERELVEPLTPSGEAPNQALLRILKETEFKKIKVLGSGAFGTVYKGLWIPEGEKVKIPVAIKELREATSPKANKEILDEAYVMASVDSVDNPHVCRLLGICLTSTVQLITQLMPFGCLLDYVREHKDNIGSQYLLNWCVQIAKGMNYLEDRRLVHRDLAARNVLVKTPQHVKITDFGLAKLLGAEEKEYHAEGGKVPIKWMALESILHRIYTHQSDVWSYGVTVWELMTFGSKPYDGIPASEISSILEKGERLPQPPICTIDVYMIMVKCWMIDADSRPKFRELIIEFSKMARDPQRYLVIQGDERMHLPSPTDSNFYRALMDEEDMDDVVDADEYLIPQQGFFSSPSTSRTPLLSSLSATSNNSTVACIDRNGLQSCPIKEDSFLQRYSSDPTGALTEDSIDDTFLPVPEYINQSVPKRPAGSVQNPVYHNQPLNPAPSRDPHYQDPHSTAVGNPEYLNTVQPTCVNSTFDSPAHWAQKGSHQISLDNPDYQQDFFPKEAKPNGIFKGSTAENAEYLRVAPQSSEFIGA
Description: BaF3 panel Cell Titer Glo proliferation, EGFR-SVD (Example 3). It is filed as cell-based. Conditions: BaF3 transformant, 72 hours, FIG. 21. How it is done:
as §1

For assay [2], the target named is T2, EGFR-Exon 20 insertion NPH (EGFR-NPH) (Homo sapiens, UniProt P00533, DUP771-773).
T2 construct: expressed in transfected cells; host or cells: BaF3 (murine pro-B), retroviral pMXs-IRES-Blasticidin
T2 sequence (P00533 with tags, fused parts or gaps DUP771-773): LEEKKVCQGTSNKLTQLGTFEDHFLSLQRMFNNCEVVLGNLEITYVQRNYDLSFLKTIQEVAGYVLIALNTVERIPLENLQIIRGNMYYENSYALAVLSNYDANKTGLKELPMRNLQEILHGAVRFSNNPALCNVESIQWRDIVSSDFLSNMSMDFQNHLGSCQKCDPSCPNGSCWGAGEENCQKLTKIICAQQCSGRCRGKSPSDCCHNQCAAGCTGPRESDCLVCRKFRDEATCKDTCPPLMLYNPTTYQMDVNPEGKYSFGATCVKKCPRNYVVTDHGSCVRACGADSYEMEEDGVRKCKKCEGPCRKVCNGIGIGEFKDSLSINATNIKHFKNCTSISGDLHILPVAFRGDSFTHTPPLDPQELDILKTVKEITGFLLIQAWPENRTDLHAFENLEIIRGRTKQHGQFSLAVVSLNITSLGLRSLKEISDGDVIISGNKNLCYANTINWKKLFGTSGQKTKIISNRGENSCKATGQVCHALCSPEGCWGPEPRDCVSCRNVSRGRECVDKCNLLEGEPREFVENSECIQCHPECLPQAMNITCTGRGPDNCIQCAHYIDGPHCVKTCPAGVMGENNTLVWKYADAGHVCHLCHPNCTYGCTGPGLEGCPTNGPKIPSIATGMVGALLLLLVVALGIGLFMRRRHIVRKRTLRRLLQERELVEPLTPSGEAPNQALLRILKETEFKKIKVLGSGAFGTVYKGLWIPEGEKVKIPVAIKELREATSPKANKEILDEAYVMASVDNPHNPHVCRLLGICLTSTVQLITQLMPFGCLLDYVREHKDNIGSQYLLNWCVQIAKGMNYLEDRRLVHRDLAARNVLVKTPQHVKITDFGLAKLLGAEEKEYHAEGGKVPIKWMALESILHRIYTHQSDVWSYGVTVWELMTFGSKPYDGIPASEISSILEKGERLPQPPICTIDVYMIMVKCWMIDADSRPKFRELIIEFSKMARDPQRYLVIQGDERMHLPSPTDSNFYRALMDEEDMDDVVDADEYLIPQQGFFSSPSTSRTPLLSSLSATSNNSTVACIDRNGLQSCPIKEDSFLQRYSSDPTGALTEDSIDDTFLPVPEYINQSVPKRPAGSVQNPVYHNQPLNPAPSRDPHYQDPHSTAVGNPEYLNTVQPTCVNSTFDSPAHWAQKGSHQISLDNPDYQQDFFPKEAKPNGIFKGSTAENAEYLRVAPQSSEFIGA
Description: BaF3 panel Cell Titer Glo proliferation, EGFR-NPH (Example 3). The conditions noted are these: BaF3 transformant, 72 hours, FIG. 21. It is filed as cell-based. How it is done: as §1

A further assay addresses WT-EGFR (A431 cell line) (Homo sapiens, UniProt P00533). Description: A431 cell proliferation (Cell Titer Glo), WT-EGFR. The class given is cell-based. The conditions noted are these: A431 cells, 72 hours. How it is done:
as §1, with “inhibition.” for “inhibition. A panel of BaF3 cell lines were generated by transforming the parental BaF3 cell line with wild type HER2 (HER2-WT), HER2 S310F (HER2-S310F), HER2 Exon 20 insertion YVMA (HER2-YVMA), EGFR-Exon 20 insertion ASV (EGFR-ASV), EGFR-Exon 20 insertion SVD (EGFR-SVD), or EGFR-Exon 20 insertion NPH (EGFR-NPH). The A431 lung cancer cell line, which natively expresses WT-EGFR, was used to assess WT-EGFR inhibition.”
The BaF3 parental cell line is normally dependent on IL-3 for proliferation, but when transformed with active tyrosine kinase can grow in the absence of IL-3. […] Proliferation was assessed using the Cell Titer Glo cell proliferation kit (Promegaf# G7573). […] Cell Titer Glo was added to plated cells at 15 ul per well, the plate was shaken for 20 minutes at room temperature, and luminescence was measured using Victor X3 Multimode plate reader (Perkin Elmer). […]

A further assay relates to Her2 Exon 20-YVMA A775. Description: Tumor pHER2/pERK AlphaLisa in mice bearing Her2 Exon 20-YVMA A775 BaF3 tumors (Example 14). The class given is in vivo. Conditions: two day acute oral dosing, 15 mg/kg; at peak plasma levels; FIG. 33. The method, then: Athymic nude mice from Charles River Labs bearing Her2 Exon 20-YVMA A775 BaF3 tumors were treated with two day acute oral dosing of Compound No. 26 at 15 mg/kg. Following the second dose, tumors were collected at 2 hours, 5 hours, 12 hours and 24 hours, and analyzed for both pHER2 activity and pERK activity via AlphaLisa. Plasma was also collected at these time points and analayzed for the presence of Compound No. 26 to determine pharmacokinetic profile. […] The protein concentration of the supernatant was measured using the BCA reagent Kit (Thermo Scientific #23225). Tumor tissue-derived lysates were analyzed for either HER2 activity or EGFR activity by detection of pHER2 (Tyr1221/1222) or pERK (Thr202/Tyr204) phosphosites, respectively, via AlphaLisa. […] The plate was covered and shaken for 5 minutes on a plate shaker and then incubated at room temperature in the dark for 90 minutes before reading. pHer2 AlphaLisa (Perkin Elmer # ALSU-PEB2-A10K) was used to quantify phosphorylation of Her2 (Tyr1221/1222) or pERK AlphLisA (Perkin Elmer # […]-A10K) was used to quantify phosphorylation of ERK1/2 (Thr202/Tyr204) in the control and Compound No. 26 treated tumor samples.
(In general: Bead proximity is the source of the signal in Alpha formats.)

This is an account of results in patent publication US11034672B1, “Tyrosine kinase inhibitor compositions, methods of making and methods of use” (Black Diamond Therapeutics, Inc., priority 2018, dated 2021).

Sequence of WT-EGFR (A431 cell line) (P00533 25-1210): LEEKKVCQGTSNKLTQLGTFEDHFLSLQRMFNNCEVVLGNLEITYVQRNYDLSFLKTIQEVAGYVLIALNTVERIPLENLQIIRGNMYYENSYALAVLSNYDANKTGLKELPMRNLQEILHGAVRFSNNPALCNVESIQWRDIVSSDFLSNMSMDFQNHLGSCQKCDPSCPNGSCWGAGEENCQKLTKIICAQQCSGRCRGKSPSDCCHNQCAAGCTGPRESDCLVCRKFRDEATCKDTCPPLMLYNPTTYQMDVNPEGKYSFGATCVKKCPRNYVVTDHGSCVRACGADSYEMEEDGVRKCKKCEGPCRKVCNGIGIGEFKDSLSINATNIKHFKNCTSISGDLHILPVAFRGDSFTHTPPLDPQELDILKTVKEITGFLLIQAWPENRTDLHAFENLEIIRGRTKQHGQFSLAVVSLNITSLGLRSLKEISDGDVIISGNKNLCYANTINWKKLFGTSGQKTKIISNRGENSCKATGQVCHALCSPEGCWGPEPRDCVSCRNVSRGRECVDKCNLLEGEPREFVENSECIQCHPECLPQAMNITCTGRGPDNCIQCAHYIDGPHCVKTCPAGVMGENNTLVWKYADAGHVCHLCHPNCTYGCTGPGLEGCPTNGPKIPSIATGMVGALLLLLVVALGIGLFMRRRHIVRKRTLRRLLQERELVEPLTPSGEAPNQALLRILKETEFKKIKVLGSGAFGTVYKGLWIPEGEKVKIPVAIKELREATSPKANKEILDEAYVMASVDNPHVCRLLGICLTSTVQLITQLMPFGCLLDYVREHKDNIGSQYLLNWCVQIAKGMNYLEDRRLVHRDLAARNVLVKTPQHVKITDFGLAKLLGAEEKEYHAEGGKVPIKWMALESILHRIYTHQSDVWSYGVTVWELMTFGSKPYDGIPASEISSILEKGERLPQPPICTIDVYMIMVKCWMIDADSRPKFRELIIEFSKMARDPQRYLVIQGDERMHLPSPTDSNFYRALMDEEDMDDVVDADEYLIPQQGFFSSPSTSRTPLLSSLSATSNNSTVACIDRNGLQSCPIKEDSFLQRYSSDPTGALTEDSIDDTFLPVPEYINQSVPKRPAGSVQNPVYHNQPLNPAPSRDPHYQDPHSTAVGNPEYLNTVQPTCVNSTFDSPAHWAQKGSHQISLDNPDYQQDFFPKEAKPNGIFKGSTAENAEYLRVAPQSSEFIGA
Sequence of wild type HER2 (HER2-WT) (P04626 23-1255): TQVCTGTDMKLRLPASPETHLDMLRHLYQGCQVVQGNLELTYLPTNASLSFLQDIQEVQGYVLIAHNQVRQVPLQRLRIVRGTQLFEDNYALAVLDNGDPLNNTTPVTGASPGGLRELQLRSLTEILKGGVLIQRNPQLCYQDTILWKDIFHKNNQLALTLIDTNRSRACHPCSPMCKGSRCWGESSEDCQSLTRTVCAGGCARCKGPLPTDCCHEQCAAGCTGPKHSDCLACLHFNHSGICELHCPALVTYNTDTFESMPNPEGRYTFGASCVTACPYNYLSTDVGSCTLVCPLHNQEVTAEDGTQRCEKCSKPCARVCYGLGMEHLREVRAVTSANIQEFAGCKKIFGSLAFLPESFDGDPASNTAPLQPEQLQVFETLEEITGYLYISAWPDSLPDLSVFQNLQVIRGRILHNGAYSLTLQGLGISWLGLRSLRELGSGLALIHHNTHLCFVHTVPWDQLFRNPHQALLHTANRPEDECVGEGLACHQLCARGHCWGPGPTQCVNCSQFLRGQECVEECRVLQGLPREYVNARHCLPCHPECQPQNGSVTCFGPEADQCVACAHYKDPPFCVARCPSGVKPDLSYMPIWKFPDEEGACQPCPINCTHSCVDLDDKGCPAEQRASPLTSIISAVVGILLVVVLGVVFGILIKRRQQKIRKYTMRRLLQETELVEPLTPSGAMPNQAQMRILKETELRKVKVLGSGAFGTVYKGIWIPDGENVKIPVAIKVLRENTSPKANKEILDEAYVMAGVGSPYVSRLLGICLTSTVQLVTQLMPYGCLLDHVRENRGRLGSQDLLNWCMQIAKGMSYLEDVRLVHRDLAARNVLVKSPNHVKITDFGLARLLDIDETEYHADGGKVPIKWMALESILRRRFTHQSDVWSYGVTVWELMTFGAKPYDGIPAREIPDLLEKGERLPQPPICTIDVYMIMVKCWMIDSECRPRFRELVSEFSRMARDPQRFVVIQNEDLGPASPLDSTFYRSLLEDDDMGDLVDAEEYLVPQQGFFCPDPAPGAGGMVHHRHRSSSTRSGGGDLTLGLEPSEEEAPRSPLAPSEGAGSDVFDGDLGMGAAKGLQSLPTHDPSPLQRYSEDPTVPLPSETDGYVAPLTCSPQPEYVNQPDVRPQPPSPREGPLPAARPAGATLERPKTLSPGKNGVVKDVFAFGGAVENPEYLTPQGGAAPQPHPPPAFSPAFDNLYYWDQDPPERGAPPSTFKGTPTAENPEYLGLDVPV

A word on the IC50: it is the midpoint of a concentration-inhibition curve. In the case of `C=CC(=O)Nc1cc2c(Nc3cc(Cl)c(OCc4cccc(F)c4)cc3F)ncnc2cc1OCCN1CCOCC1` [compound 6], the IC50 at wild type HER2 (HER2-WT) was < 10 nM; in assay [1], < 100 nM; in assay [2], < 100 nM; at WT-EGFR (A431 cell line), > 100 nM.
For `C=CC(=O)Nc1cc2c(Nc3ccc(OCc4ccccn4)c(Cl)c3)ncnc2cc1OCCN1CCOCC1` [compound 8], the IC50 against WT-EGFR (A431 cell line) was > 100 nM.
`C=CC(=O)Nc1cc2c(Nc3ccc(OCc4ccccn4)c(Cl)c3)ncnc2cc1C#C[C@@H]1[C@H]2CN(C)C[C@@H]12` [compound 26]: in the assay on Her2 Exon 20-YVMA A775, the “pERK1/2 (Thr202/Tyr204) in tumors” value was “near complete reduction” and the “pHER2 (Tyr1221/1222) in tumors” value was “near complete reduction”.
